Patent US20220144838A1, “Compounds as Inhibitors of Macrophage Migration Inhibitory Factor” (NANJING IMMUNOPHAGE BIOTECH CO., LTD., priority 2019, published 2022)

Molecular target: T1, MIF (Homo sapiens, UniProt P14174)
T1 sequence (P14174 2-115 limits assumed): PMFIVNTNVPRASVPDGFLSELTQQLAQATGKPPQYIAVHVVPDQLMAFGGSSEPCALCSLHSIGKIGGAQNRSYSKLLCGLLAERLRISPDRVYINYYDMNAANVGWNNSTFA
Test: MIF tautomerase assay using pHPP as substrate
Assay type: biochemical
Details: FIGS. 1-5; mean of multiple test results; read-out: pIC50 MIF tautomerase activity (converted)
Experimental: Tautomerase Assay Using pHPP as Substrate
This assay measured MIF's tautomerase activity in a cell-free system and was based on the determination of initial rates of the MIF-catalyzed conversion of the ketonic into the enolic tautomer of pHPP. This was achieved by spectrophotometric quantification of the complex between borate and the product of the reaction (enolic pHPP). The substrate was prepared by conversion of the enolic pHPP into its ketonic form. To achieve this, 0.5 M pHPP in methanol was diluted 10-fold with 50 mM sodium acetate buffer at pH 6.0, and then the suspension was shaken for 24 h at room temperature in darkness, and finally stored at 4° C. for not more than 1 week, with 5 min sonication being recommended before use.
Assays were performed in small-volume clear-bottom black 96 or 384-well polystyrene plates (Greiner Bio-One). First, 2 μL of the enzyme solution containing 6 nM of MIF in DPBS, 0.025% w/v BSA, and 300 μM CHAPS was dispensed onto sample and negative control wells using Multidrop Combi with metallic tip cassettes (Thermo Fisher Scientific) previously treated with Sigmacote. Then, 2 μL of the same buffer without MIF was dispensed onto positive control wells. The reaction was started by addition of the following to all wells: 2 μL of substrate solution containing 3 mM ketonic pHPP in 200 mM boric acid, 25 mM sodium phosphate, 0.025% w/v BSA, and 300 μM CHAPS at pH 6.0. In order to remove bubbles, the plate was centrifuged in an Allegra 25R centrifuge (Beckman Coulter, Inc., Brea, Calif.) at 1000 rpm for 2 min at room temperature. Then, the plate was read in an EnVision. Final concentrations of enzyme and substrate were 3 nM and 1.5 mM, respectively. Initial rates were calculated for each well as the slope of the absorbance progress curve.
All exemplified compounds (Examples 1-230) were tested in the MIF tautomerase assay or a similar assay described above. The data mentioned below represents a mean pIC50 value of multiple test results. It is understood that the data illustrated below may have reasonable variation depending on the specific conditions and procedures used by the person conducting the testing.

Row | Structure (SMILES) | IC50 [µM]
1 | O=C(O)Cn1cnc2c(-n3ncc4c(C(=O)O)cccc43)nc(N3CCN(c4ccc(O)cc4)CC3)nc21 [Example 99, 1-(9-(carboxymethyl)-2-(4-(4-hydroxyphenyl)piperazin-1-yl)-9H-purin-6-yl)-1H-indazole-4-carboxylic acid] | ≤ 0.1

Same assay, conditions: inhibition of the MIF enzyme in vitro; mean of multiple test results; read-out: Tautomerase Inhibition pIC50 (converted)

Row | Structure (SMILES) | IC50 [µM]
2 | N#Cc1ccc2c(cnn2-c2nc(N3CCN(c4ccc(O)cc4)CC3)nc3c2ncn3CC(=O)O)c1 [Example 52, 2-(6-(5-cyano-1H-indazol-1-yl)-2-(4-(4-hydroxyphenyl)piperazin-1-yl)-9H-purin-9-yl)acetic acid] | 0.01 to 0.0977
3 | OCCn1cnc2c(-n3ncc4ccccc43)nc(N3CC=C(c4ccc(O)cc4)CC3)nc21 [Example 159, 4-(1-(9-(2-hydroxyethyl)-6-(1H-indazol-1-yl)-9H-purin-2-yl)-1,2,3,6-tetrahydropyridin-4-yl)phenol] | > 10
4 | NC(=O)c1ccc(N2CCN(c3nc(N)c4ncn(-c5ccncc5)c4n3)CC2)nc1 [Example 194, 6-(4-(6-amino-9-(pyridin-4-yl)-9H-purin-2-yl)piperazin-1-yl)nicotinamide] | > 10
5 | Nc1ccc(N2CCN(c3nc(N)c4ncn(-c5ccncc5)c4n3)CC2)nc1 [Example 190, 2-(4-(5-aminopyridin-2-yl)piperazin-1-yl)-9-(pyridin-4-yl)-9H-purin-6-amine] | > 10
6 | CCS(=O)(=O)NC(=O)Cn1cnc2c(-n3ncc4ccccc43)nc(N3CCN(c4ccc(O)cc4)CC3)nc21 [Example 53, N-(ethylsulfonyl)-2-(2-(4-(4-hydroxyphenyl)piperazin-1-yl)-6-(1H-indazol-1-yl)-9H-purin-9-yl)acetamide] | 0.01 to 0.0977
7 | O=C(O)Cn1cnc2c(N3N=CC4C=CC=CC43)nc(N3CCN(c4ccncc4)CC3)nc21 (stereo not drawn) [Example 49, 2-(6-(3a,7a-dihydro-1H-indazol-1-yl)-2-(4-(pyridin-4-yl)piperazin-1-yl)-9H-purin-9-yl)acetic acid] | > 10
8 | CCC(CO)N(C)c1nc(N2CCN(c3ccc(O)cc3)CC2)nc2c1ncn2-c1cccnc1 (stereo not drawn) [Example 183, 4-(4-(6-((1-hydroxybutan-2-yl)(methyl)amino)-9-(pyridin-3-yl)-9H-purin-2-yl)piperazin-1-yl)phenol] | > 10
9 | Cc1nc(N2CCN(c3ccc(O)cc3)CC2)nc2c1ncn2C(CO)CO [Example 110, 2-(2-(4-(4-hydroxyphenyl)piperazin-1-yl)-6-methyl-9H-purin-9-yl)propane-1,3-diol] | > 10
10 | O=C1Cc2ccccc2N1c1nc(N2CCN(c3ccc(O)cc3)CC2)nc2c1ncn2CCO [Example 2, 1-(9-(2-hydroxyethyl)-2-(4-(4-hydroxyphenyl)piperazin-1-yl)-9H-purin-6-yl)indolin-2-one] | 0.1 to 0.977
11 | N#Cc1ccc(-n2cnc3c(N)nc(N4CCN(c5ccc(O)cc5)CC4)nc32)cc1 [Example 74, 4-(6-amino-2-(4-(4-hydroxyphenyl)piperazin-1-yl)-9H-purin-9-yl)benzonitrile] | 0.1 to 0.977
12 | Nc1nc(N2CCN(c3ccc(O)cc3)CC2)nc2c1ncn2-c1cccc(F)c1 [Example 72, 4-(4-(6-amino-9-(3-fluorophenyl)-9H-purin-2-yl)piperazin-1-yl)phenol] | 1 to 9.77
13 | Cc1nc(N2CCN(c3ccc(O)cc3)CC2)nc2c1ncn2-c1cccc(O)c1Cl [Example 37, 2-chloro-3-(2-(4-(4-hydroxyphenyl)piperazin-1-yl)-6-methyl-9H-purin-9-yl)phenol] | 1 to 9.77
14 | O=C(O)Cn1cnc2c(-c3cccc4[nH]ccc34)nc(N3CCN(c4ccc(O)cc4)CC3)nc21 [Example 118, 2-(2-(4-(4-hydroxyphenyl)piperazin-1-yl)-6-(1H-indol-4-yl)-9H-purin-9-yl)acetic acid] | 1 to 9.77
15 | O=C(O)Cn1cnc2c(-n3ncc4ccccc43)nc(N3CCN(c4ncc(O)cc4F)CC3)nc21 [Example 130, 2-(2-(4-(3-fluoro-5-hydroxypyridin-2-yl)piperazin-1-yl)-6-(1H-indazol-1-yl)-9H-purin-9-yl)acetic acid] | > 10
16 | CC1CN(c2nc(N)c3ncn(-c4ccncc4)c3n2)CCN1c1ccc(O)cc1 (stereo not drawn) [Example 186, 4-(4-(6-amino-9-(pyridin-4-yl)-9H-purin-2-yl)-2-methylpiperazin-1-yl)phenol] | 0.1 to 0.977
17 | O=C(O)Cn1cnc2c(-n3ncc4c(C(=O)O)cccc43)nc(N3CCN(c4ccc(O)cc4)CC3)nc21 [Example 99, 1-(9-(carboxymethyl)-2-(4-(4-hydroxyphenyl)piperazin-1-yl)-9H-purin-6-yl)-1H-indazole-4-carboxylic acid] | 0.01 to 0.0977

Row | Structure (SMILES) | IC50 [µM]
18 | O=C(O)Cn1cnc2c(-n3ncc4ccccc43)nc(N3CCN(c4ccc(O)cc4)CC3)nc21 [Example 45, 2-(2-(4-(4-hydroxyphenyl)piperazin-1-yl)-6-(1H-indazol-1-yl)-9H-purin-9-yl)acetic acid] | 0.01 to 0.0977
19 | Nc1nc(N2CCN(c3ccc(O)cc3)CC2)nc2c1ncn2C1CCNCC1 [Example 188, 4-(4-(6-amino-9-(piperidin-4-yl)-9H-purin-2-yl)piperazin-1-yl)phenol] | > 10
20 | O=C(O)CCCCn1cnc2c(-n3ncc4ccccc43)nc(N3CCN(c4ccc(O)cn4)CC3)nc21 [Example 149, 5-(2-(4-(5-hydroxypyridin-2-yl)piperazin-1-yl)-6-(1H-indazol-1-yl)-9H-purin-9-yl)pentanoic acid] | 0.01 to 0.0977
21 | Oc1ccc(N2CCN(c3nc(N4CCCC4)c4ncn(-c5cccnc5)c4n3)CC2)cc1 [Example 92, 4-(4-(9-(pyridin-3-yl)-6-(pyrrolidin-1-yl)-9H-purin-2-yl)piperazin-1-yl)phenol] | 1 to 9.77
22 | OCC(CO)n1cnc2c(N3CCc4ccccc43)nc(N3CCN(c4ccc(O)cc4)CC3)nc21 [Example 133, 2-(2-(4-(4-hydroxyphenyl)piperazin-1-yl)-6-(indolin-1-yl)-9H-purin-9-yl)propane-1,3-diol] | 0.1 to 0.977
23 | OCC(CO)Nc1nc(N2CCN(c3ccc(O)cc3)CC2)nc2c1ncn2-c1ccncc1 [Example 173, 2-((2-(4-(4-hydroxyphenyl)piperazin-1-yl)-9-(pyridin-4-yl)-9H-purin-6-yl)amino)propane-1,3-diol] | 0.01 to 0.0977
24 | Cc1nc(N2CCN(c3ccc(O)cc3)CC2)nc2c1ncn2-c1cccnc1O [Example 60, 3-(2-(4-(4-hydroxyphenyl)piperazin-1-yl)-6-methyl-9H-purin-9-yl)pyridin-2-ol] | 0.1 to 0.977
25 | CCOC(=O)Cn1cnc2c(-n3cnc4ccccc43)nc(N3CCN(c4ccc(O)cc4)CC3)nc21 [Example 40, ethyl 2-(6-(1H-benzo[d]imidazol-1-yl)-2-(4-(4-hydroxyphenyl)piperazin-1-yl)-9H-purin-9-yl)acetate] | 1 to 9.77
26 | OCCn1cnc2c(-n3ncc4ccccc43)nc(N3CCN(c4ccc(CO)cn4)CC3)nc21 [Example 154, 2-(2-(4-(5-(hydroxymethyl)pyridin-2-yl)piperazin-1-yl)-6-(1H-indazol-1-yl)-9H-purin-9-yl)ethan-1-ol] | > 10
27 | O=C(O)Cn1cnc2c(-n3ncc4c(Cl)cccc43)nc(N3CCN(c4ccc(O)cc4)CC3)nc21 [Example 106, 2-(6-(4-chloro-1H-indazol-1-yl)-2-(4-(4-hydroxyphenyl)piperazin-1-yl)-9H-purin-9-yl)acetic acid] | 0.1 to 0.977
28 | CC(C)S(=O)(=O)NC(=O)Cn1cnc2c(-n3ncc4ccccc43)nc(N3CCN(c4ccc(O)cc4)CC3)nc21 [Example 54, 2-(2-(4-(4-hydroxyphenyl)piperazin-1-yl)-6-(1H-indazol-1-yl)-9H-purin-9-yl)-N-(isopropylsulfonyl)acetamide] | 0.1 to 0.977
29 | OCCCNc1nc(N2CCN(c3ccc(O)cc3)CC2)nc2c1ncn2-c1cccnc1 [Example 113, 4-(4-(6-((3-hydroxypropyl)amino)-9-(pyridin-3-yl)-9H-purin-2-yl)piperazin-1-yl)phenol] | 0.1 to 0.977
30 | OCCn1cnc2c(-n3cnc4ccccc43)nc(N3CCN(c4ccc(O)cc4)CC3)nc21 [Example 9, 4-(4-(6-(1H-benzo[d]imidazol-1-yl)-9-(2-hydroxyethyl)-9H-purin-2-yl)piperazin-1-yl)phenol] | 0.1 to 0.977
31 | O=C(O)Cn1cnc2c(N3Cc4ccccc4C3=O)nc(N3Cc4ccccc4C3=O)nc21 [Example 27, 2-(2,6-bis(1-oxoisoindolin-2-yl)-9H-purin-9-yl)acetic acid] | > 10
32 | Nc1nc(N2CCN(c3ccc(O)cn3)CC2)nc2c1ccn2-c1ccncc1 [Example 230, 6-(4-(4-amino-7-(pyridin-4-yl)-7H-pyrrolo[2,3-d]pyrimidin-2-yl)piperazin-1-yl)pyridin-3-ol] | 1 to 9.77
33 | Cc1cc(-n2cnc3c(C)nc(N4CCC(O)(c5ccc(O)cc5)CC4)nc32)ccn1 [Example 203, 4-(4-hydroxyphenyl)-1-(6-methyl-9-(2-methylpyridin-4-yl)-9H-purin-2-yl)piperidin-4-ol] | > 10
